Reference: patent publication US8148391B2 (Cephalon, Inc., priority 2006, dated 2012)
Like-named read-outs stand apart in the source and are kept apart here.

How the values were obtained:
[1] = molecular target: T1, baculovirus-expressed ALK (Homo sapiens, UniProt Q9UM73); test: ALK Kinase Assay (ELISA-type, time-resolved fluorescence); type: biochemical
T1 construct: host or cells: baculovirus expression system
Method in brief: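 Substrate coating: phospholipase C-γ, 10 μg/mL in TBS. Kinase step: 30 ng/ml ALK, 15 min, 37° C. Detection and analysis: Eu-N1 PT66 antibody, with IC50 fitted as a sigmoidal variable-slope dose-response curve.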

[2] = molecular target: T2, c-Met (cytoplasmic domain) (Homo sapiens, UniProt P08581); test: c-Met Kinase Assay (same methods as for ALK, with modifications); type: biochemical
T2 construct: 10 ng/mL c-Met (cytoplasmic domain, Invitrogen Corporation #PV3143); purchased Invitrogen Corporation PV3143
T2 sequence (P08581 956-1390 limits assumed): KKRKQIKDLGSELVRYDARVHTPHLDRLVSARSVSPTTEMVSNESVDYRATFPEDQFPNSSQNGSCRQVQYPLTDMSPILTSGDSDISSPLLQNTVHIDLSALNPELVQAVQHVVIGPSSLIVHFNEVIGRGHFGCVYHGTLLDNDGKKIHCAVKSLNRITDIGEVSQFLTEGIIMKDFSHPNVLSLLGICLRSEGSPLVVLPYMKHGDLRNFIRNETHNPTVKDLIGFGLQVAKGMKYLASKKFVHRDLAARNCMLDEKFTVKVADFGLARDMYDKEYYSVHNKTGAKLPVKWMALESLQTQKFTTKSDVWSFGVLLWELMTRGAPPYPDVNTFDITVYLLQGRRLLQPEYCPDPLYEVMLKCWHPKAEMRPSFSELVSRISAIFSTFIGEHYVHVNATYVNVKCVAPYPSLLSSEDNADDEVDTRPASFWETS
Method in brief: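 Wells were coated with 10 μg/mL phospholipase C-γ substrate in TBS, and reactions were started with 10 ng/mL c-Met cytoplasmic domain and run at 37° C for 15 minutes. Phosphorylated product was detected with Eu-N1-labeled PT66 antibody. IC50 values came from sigmoidal variable-slope fits of percent inhibition versus log compound concentration.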

[3] = ALK kinase inhibition, 1 μM ATP (Km level), read-out: ALK Activity
[4] = c-Met kinase inhibition, 1 μM ATP (Km level), read-out: cMet Activity
[5] = 1 μM ATP (Km level), read-out: ALK Activity (ALK Kinase Inhibition, IC50)
[6] = 1 μM ATP (Km level), read-out: cMet Activity (c-Met Kinase Inhibition, IC50)
[7] = 1 μM ATP (Km level), 30 ng/ml ALK, 37° C., 15 minutes, read-out: ALK Activity (ALK kinase inhibition, IC50 class)
[8] = 1 μM ATP (Km level), 10 ng/mL c-Met, read-out: cMet Activity (c-Met kinase inhibition, IC50 class)
[9] = ALK kinase inhibition, 1 μM ATP, read-out: ALK Activity
[10] = c-Met kinase inhibition, 1 μM ATP, read-out: cMet Activity

T1 sequence (Q9UM73 19-1620): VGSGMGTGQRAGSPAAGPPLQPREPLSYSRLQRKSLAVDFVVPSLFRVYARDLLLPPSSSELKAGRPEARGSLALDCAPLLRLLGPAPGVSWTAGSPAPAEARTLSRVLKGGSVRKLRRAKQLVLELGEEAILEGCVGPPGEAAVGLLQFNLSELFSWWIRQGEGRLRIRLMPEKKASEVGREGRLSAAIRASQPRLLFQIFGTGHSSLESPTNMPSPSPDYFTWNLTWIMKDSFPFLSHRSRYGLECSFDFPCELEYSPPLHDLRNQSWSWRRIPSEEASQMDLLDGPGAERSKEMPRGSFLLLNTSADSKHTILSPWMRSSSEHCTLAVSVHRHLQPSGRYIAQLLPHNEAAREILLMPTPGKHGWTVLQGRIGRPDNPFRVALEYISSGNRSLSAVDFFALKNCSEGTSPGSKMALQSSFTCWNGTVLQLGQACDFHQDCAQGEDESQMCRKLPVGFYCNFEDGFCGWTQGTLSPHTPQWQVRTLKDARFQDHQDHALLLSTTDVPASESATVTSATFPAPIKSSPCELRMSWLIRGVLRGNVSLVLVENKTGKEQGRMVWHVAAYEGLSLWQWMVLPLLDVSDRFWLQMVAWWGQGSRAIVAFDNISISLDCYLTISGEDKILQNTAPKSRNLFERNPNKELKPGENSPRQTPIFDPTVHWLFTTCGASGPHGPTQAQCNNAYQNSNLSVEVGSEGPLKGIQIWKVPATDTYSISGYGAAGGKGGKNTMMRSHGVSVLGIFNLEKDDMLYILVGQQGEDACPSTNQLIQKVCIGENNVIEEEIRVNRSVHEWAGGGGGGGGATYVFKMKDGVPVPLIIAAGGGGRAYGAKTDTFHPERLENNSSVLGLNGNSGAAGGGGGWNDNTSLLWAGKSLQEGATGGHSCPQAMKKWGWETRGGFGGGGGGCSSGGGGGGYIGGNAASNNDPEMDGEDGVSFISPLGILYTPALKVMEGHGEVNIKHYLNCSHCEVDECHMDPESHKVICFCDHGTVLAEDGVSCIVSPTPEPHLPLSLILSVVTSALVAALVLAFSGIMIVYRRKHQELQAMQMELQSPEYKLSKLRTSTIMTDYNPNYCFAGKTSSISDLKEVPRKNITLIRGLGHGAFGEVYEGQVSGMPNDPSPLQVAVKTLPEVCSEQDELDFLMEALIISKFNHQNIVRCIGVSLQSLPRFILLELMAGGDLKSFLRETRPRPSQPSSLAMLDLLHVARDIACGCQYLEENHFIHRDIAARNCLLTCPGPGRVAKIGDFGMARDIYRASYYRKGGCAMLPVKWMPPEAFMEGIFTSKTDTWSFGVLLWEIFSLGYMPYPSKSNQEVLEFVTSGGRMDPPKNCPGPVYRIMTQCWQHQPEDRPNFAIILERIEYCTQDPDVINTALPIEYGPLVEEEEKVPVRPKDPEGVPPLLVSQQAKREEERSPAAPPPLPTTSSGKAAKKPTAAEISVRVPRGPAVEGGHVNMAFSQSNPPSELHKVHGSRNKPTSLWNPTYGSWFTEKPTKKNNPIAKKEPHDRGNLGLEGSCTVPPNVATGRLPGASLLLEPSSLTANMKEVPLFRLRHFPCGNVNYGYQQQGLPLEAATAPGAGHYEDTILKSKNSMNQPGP

Compound: Cn1ccnc1-c1ccccc1Nc1nc(Nc2ccc3c(c2)CCC(=O)CC3)ncc1Cl [Example 217, 2-{5-Chloro-4-[2-(1-methyl-1H-imidazol-2-yl)-phenylamino]-pyrimidin-2-ylamino}-5,6,8,9-tetrahydro-benzocyclohepten-7-one]
- IC50 [1, 3]: < 100 nM
- IC50 [2, 4]: 100 to 1000 nM

Compound: CN1C(=O)CCCc2cc(Nc3ncc(Cl)c(Nc4cccc5c4ncn5C)n3)ccc21 [Example 1007, 7-[5-Chloro-4-(1-methyl-1H-benzoimidazol-4-ylamino)-pyrimidin-2-ylamino]-1-methyl-1,3,4,5-tetrahydro-benzo[b]azepin-2-one]
- IC50 [1, 5]: 100 to 1000 nM
- IC50 [2, 6]: 100 to 1000 nM

Compound: COCCN1CCc2ccc(Nc3ncc(Cl)c(Nc4ccccc4-c4ncccn4)n3)cc2CC1 [Example 977, 5-Chloro-N*2*-[3-(2-methoxy-ethyl)-2,3,4,5-tetrahydro-1H-benzo[d]azepin-7-yl]-N*4*-(2-pyrimidin-2-yl-phenyl)-pyrimidine-2,4-diamine]
- IC50 [1, 5]: < 100 nM
- IC50 [2, 6]: 100 to 1000 nM

Compound: COCCN1CCc2ccc(Nc3ncc(Cl)c(Nc4c(F)cccc4OCC4CCOC4)n3)cc2CC1 (centres unmarked) [Example 1275, 5-Chloro-N(4)-[2-fluoro-6-(tetrahydro-furan-3-ylmethoxy)-phenyl]-N(2)-[3-(2-methoxy-ethyl)-2,3,4,5-tetrahydro-1H-3-benzazepin-7-yl]-pyrimidine-2,4-diamine]
- IC50 [1, 7]: 1000 to 10000 nM
- IC50 [2, 8]: 1000 to 10000 nM

Compound: COCCN1CCc2ccc(Nc3ncc(Cl)c(Nc4ccccc4C(=O)NC4CC4)n3)cc2CC1 [Example 344, 2-{5-Chloro-2-[3-(2-methoxy-ethyl)-2,3,4,5-tetrahydro-1H-benzo[d]azepin-7-ylamino]-pyrimidin-4-ylamino}-N-cyclopropyl-benzamide]
- IC50 [1, 3]: < 100 nM
- IC50 [2, 4]: 100 to 1000 nM

Compound: COc1cc2c(cc1Nc1ncc(Cl)c(Nc3ccc(N4CCOCC4)cc3S(=O)(=O)N(C)C)n1)CCN(CC(=O)N(C)C)CC2 [Example 834, 2-{7-[5-Chloro-4-(2-dimethylsulfamoyl-4-morpholin-4-yl-phenylamino)-pyrimidin-2-ylamino]-8-methoxy-1,2,4,5-tetrahydro-benzo[d]azepin-3-yl}-N,N-dimethyl-acetamide]
- IC50 [1, 5]: < 100 nM
- IC50 [2, 6]: > 10000 nM

Compound: CNC(=O)c1ccccc1Nc1nc(Nc2ccc3c(c2)NC(=O)CNC3)ncc1Cl [Example 1858, 2-[5-Chloro-2-(2-oxo-2,3,4,5-tetrahydro-1H-benzo[e][1,4]diazepin-8-ylamino)-pyrimidin-4-ylamino]-N-methyl-benzamide]
- IC50 [1, 9]: 100 to 1000 nM
- IC50 [2, 10]: < 100 nM

Compound: CNC(=O)c1ccccc1Nc1nc(Nc2ccc3c(c2)C(C)(C)CCC(=O)N3C)ncc1Cl [Example 384, 2-[5-Chloro-2-(1,5,5-trimethyl-2-oxo-2,3,4,5-tetrahydro-1H-benzo[b]azepin-7-ylamino)-pyrimidin-4-ylamino]-N-methyl-benzamide]
- IC50 [1, 3]: < 100 nM
- IC50 [2, 4]: < 100 nM

Compound: CCN1C2CCC1c1c(ccc(Nc3ncc(Cl)c(Nc4ccccc4C(=O)NC)n3)c1Cl)C2 (centres unmarked) [Example 73, 2-[5-Chloro-2-(3-chloro-12-ethyl-12-aza-tricyclo[7.2.1.0*2,7*]dodeca-2(7),3,5-trien-4-ylamino)-pyrimidin-4-ylamino]-N-methyl-benzamide]
- IC50 [1, 3]: < 100 nM
- IC50 [2, 4]: 100 to 1000 nM

Compound: COCCNC1CCCc2c(ccc(Nc3ncc(Cl)c(N[C@@H]4CCCC[C@H]4NS(C)(=O)=O)n3)c2OC)C1 (stereo partly drawn) [Example 958, N-((1R,2R)-2-{5-Chloro-2-[1-methoxy-6-(2-methoxy-ethylamino)-6,7,8,9-tetrahydro-5H-benzocyclohepten-2-ylamino]-pyrimidin-4-ylamino}-cyclohexyl)-methanesulfonamide]
- IC50 [1, 5]: < 100 nM
- IC50 [2, 6]: > 10000 nM

Compound: CCNC(=O)c1cccc(F)c1Nc1nc(Nc2ccc3c(c2)CCN(CC(=O)NC)CC3)ncc1Cl [Example 1372, 2-[5-Chloro-2-(3-methylcarbamoylmethyl-2,3,4,5-tetrahydro-1H-benzo[d]azepin-7-ylamino)-pyrimidin-4-ylamino]-N-ethyl-3-fluoro-benzamide]
- IC50 [1, 7]: < 100 nM
- IC50 [2, 8]: < 100 nM

Compound: CCN1C(=O)[C@@H](NC(=O)CN(C)C)CCc2c1ccc(Nc1ncc(Cl)c(N[C@H]3[C@@H](C(N)=O)[C@@H]4C=C[C@H]3C4)n1)c2OC (single isomer, unassigned) [Example 1355]
- IC50 [1, 7]: < 100 nM
- IC50 [2, 8]: > 10000 nM

Compound: COc1cc2c(cc1Nc1ncc(Cl)c(Nc3ccccc3S(=O)(=O)C(C)C)n1)CCN(CC(=O)N1CCOCC1)CC2 [Example 1536, 2-(7-{5-Chloro-4-[2-(propane-2-sulfonyl)-phenylamino]-pyrimidin-2-ylamino}-8-methoxy-1,2,4,5-tetrahydro-3-benzazepin-3-yl)-1-morpholin-4-yl-ethanone]
- IC50 [1, 9]: < 100 nM
- IC50 [2, 10]: > 10000 nM

Compound: CNC(=O)c1cccc(F)c1Nc1nc(Nc2ccc3c(c2)N(CCOC)CCCC3(C)C)ncc1Cl [Example 1599, 2-{5-Chloro-2-[1-(2-methoxy-ethyl)-5,5-dimethyl-2,3,4,5-tetrahydro-1H-benzo[b]azepin-8-ylamino]-pyrimidin-4-ylamino}-3-fluoro-N-methyl-benzamide]
- IC50 [1, 9]: < 100 nM
- IC50 [2, 10]: < 100 nM

Compound: COc1cc2c(cc1Nc1ncc(Cl)c(Nc3ccccc3S(=O)(=O)N(C)C)n1)CCN(C(=O)CN1CCOCC1)CC2 [Example 1192, 2-{5-Chloro-2-[8-methoxy-3-(2-morpholin-4-yl-acetyl)-2,3,4,5-tetrahydro-1H-benzo[d]azepin-7-ylamino]-pyrimidin-4-ylamino}-N,N-dimethyl-benzenesulfonamide]
- IC50 [1, 7]: < 100 nM
- IC50 [2, 8]: 1000 to 10000 nM

Compound: CCN1CCN(CC)c2cc(Nc3ncc(Cl)c(Nc4ccccc4NS(C)(=O)=O)n3)ccc2C1 [Example 425, N-{2-[5-Chloro-2-(1,4-diethyl-2,3,4,5-tetrahydro-1H-benzo[e][1,4]diazepin-8-ylamino)-pyrimidin-4-ylamino]-phenyl}-methanesulfonamide]
- IC50 [1, 3]: < 100 nM
- IC50 [2, 4]: 100 to 1000 nM

Compound: CNC(=O)c1ccccc1Nc1nc(Nc2ccc3c(c2)NC(=O)CN(Cc2ccccc2)C3)ncc1Cl [Example 1859, 2-[2-(4-Benzyl-2-oxo-2,3,4,5-tetrahydro-1H-benzo[e][1,4]diazepin-8-ylamino)-5-chloro-pyrimidin-4-ylamino]-N-methyl-benzamide]
- IC50 [1, 9]: 100 to 1000 nM
- IC50 [2, 10]: 100 to 1000 nM

Compound: CCOc1ccccc1Nc1nc(Nc2cc3c(cc2OC)CCN(CC(=O)N(C)C)CC3)ncc1Cl [Example 1144, 2-{7-[5-Chloro-4-(2-ethoxy-phenylamino)-pyrimidin-2-ylamino]-8-methoxy-1,2,4,5-tetrahydro-benzo[d]azepin-3-yl}-N,N-dimethyl-acetamide]
- IC50 [1, 7]: < 100 nM
- IC50 [2, 8]: > 10000 nM

Compound: CNC(=O)c1ccccc1Nc1nc(Nc2ccc3c(c2)C2CCC3CN(C(C)=O)C2)ncc1Cl (centres unmarked) [Example 283, 2-[2-(10-Acetyl-10-aza-tricyclo[6.3.2.0*2,7*]trideca-2,4,6-trien-4-ylamino)-5-chloro-pyrimidin-4-ylamino]-N-methyl-benzamide]
- IC50 [1, 3]: < 100 nM
- IC50 [2, 4]: < 100 nM

Compound: COc1ccc(Nc2nc(Nc3cc4c(cc3OC)CCN(CC(=O)N(C)C)CC4)ncc2Cl)c(N(C)C)c1 [Example 826, 2-{7-[5-Chloro-4-(2-dimethylamino-4-methoxy-phenylamino)-pyrimidin-2-ylamino]-8-methoxy-1,2,4,5-tetrahydro-benzo[d]azepin-3-yl}-N,N-dimethyl-acetamide]
- IC50 [1, 5]: < 100 nM
- IC50 [2, 6]: > 10000 nM

Compound: COc1cc2c(cc1Nc1ncc(Cl)c(Nc3ccccc3S(=O)(=O)C(C)C)n1)CCN(CCS(C)(=O)=O)CC2 [Example 1164, 5-Chloro-N*2*-[3-(2-methanesulfonyl-ethyl)-8-methoxy-2,3,4,5-tetrahydro-1H-benzo[d]azepin-7-yl]-N*4*-[2-(propane-2-sulfonyl)-phenyl]-pyrimidine-2,4-diamine]
- IC50 [1, 7]: < 100 nM
- IC50 [2, 8]: 1000 to 10000 nM

Compound: CCN1CCc2ccc(Nc3ncc(F)c(Nc4ccccc4C(=O)NC)n3)cc2CC1 [Example 196, 2-[2-(3-Ethyl-2,3,4,5-tetrahydro-1H-benzo[d]azepin-7-ylamino)-5-fluoro-pyrimidin-4-ylamino]-N-methyl-benzamide]
- IC50 [1, 3]: < 100 nM
- IC50 [2, 4]: < 100 nM

Compound: CC1(C)CCCN(CCN2CCCC2)c2cc(Nc3ncc(Cl)c(N[C@H]4[C@@H](C(N)=O)[C@@H]5C=C[C@H]4C5)n3)ccc21 [Example 1606, (1S,2S,3R,4R)-3-{5-Chloro-2-[5,5-dimethyl-1-(2-pyrrolidin-1-yl-ethyl)-2,3,4,5-tetrahydro-1H-benzo[b]azepin-8-ylamino]-pyrimidin-4-ylamino}-bicyclo[2.2.1]hept-5-ene-2-carboxylic acid amide]
- IC50 [1, 9]: < 100 nM
- IC50 [2, 10]: 1000 to 10000 nM

Compound: Cn1ccnc1-c1ccccc1Nc1nc(Nc2ccc3c(c2)CCCC(=O)N3)ncc1Cl [Example 994, 7-{5-Chloro-4-[2-(1-methyl-1H-imidazol-2-yl)-phenylamino]-pyrimidin-2-ylamino}-1,3,4,5-tetrahydro-benzo[b]azepin-2-one]
- IC50 [1, 5]: < 100 nM
- IC50 [2, 6]: > 10000 nM

Compound: CCNC(=O)c1ccccc1Nc1nc(Nc2ccc3c(c2)C(C)(C)CCC(=O)N3)ncc1Cl [Example 339]
- IC50 [1, 3]: < 100 nM
- IC50 [2, 4]: < 100 nM
